Key:
Assay in all cases: full kinase panel biochemical assay
RET = RET (Homo sapiens, UniProt P07949); details: single concentration of 1 μM; read-out: percent inhibition of RET
Procedure: (§1) In order to measure the protein kinase inhibitory activity (% inhibition) of the compound of the present invention, biochemical assay was performed in the full kinase panel. As a test compound, Compound No. 4 was used. The percent inhibition of each kinase when treated with the test compound at a single concentration of 1 μM was measured, and the residual enzyme activity values (%) of the kinases were calculated. Kinases whose calculated residual enzyme activity values (%) was 30% or less (i.e., kinases inhibited by 70% or more) are as follows: ABL1, ABL2/ARG, ACK1, ARAF, BLK, BMX/ETK, BRAF, BRK, BTK, c-Kit, c-Src, CSK, DDR1, DDR2, EPHA1, EPHA2, EPHA3, EPHA4, EPHA5, EPHA6, EPHA7, EPHA8, EPHB1, EPHB2, EPHB3, EPHB4, ERBB2/HER2, ERBB4/HER4, FGFR1, FGFR2, FGFR3, FGR, FLT1/VEGFR1, FLT4/VEGFR3, FMS, FRK/PTK5, FYN, GCK/MAP4K2, HCK, HGK/MAP4K4, JAK1, JAK2, KDR/VEGFR2, KHS/MAP4K5, LCK, LYN, LYN B, MEKK1, MLK4, MYLK3, NEK5, P38a/MAPK14, P38b/MAPK11, PDGFRa, PDGFRb, PEAK1, RET, RIPK2, RIPK4, SIK2, SRPK1, TAOK3/JIK, TLK1, TNK1, TXK, TYK2, YES/YES1, YSK4/MAP3K19, and ZAK/MLTK.

EPHB1 = EPHB1 (Homo sapiens, UniProt P54762); details: single concentration of 1 μM; read-out: percent inhibition of EPHB1
Procedure: as §1

BLK = BLK (Homo sapiens, UniProt P51451); details: single concentration of 1 μM; read-out: percent inhibition of BLK
Procedure: as §1

ABL1 = ABL1 (Homo sapiens, UniProt P00519); details: single concentration of 1 μM; read-out: percent inhibition of ABL1
Procedure: as §1

TNK1 = TNK1 (Homo sapiens, UniProt Q13470); details: single concentration of 1 μM; read-out: percent inhibition of TNK1
Procedure: as §1

FGFR2 = FGFR2 (Homo sapiens, UniProt P21802); details: single concentration of 1 μM; read-out: percent inhibition of FGFR2
Procedure: as §1

JAK2 = JAK2 (Homo sapiens, UniProt O60674); details: single concentration of 1 μM; read-out: percent inhibition of JAK2
Procedure: as §1

TYK2 = TYK2 (Homo sapiens, UniProt P29597); details: single concentration of 1 μM; read-out: percent inhibition of TYK2
Procedure: as §1

HGK/MAP4K4 = HGK/MAP4K4 (Homo sapiens, UniProt O95819); details: single concentration of 1 μM; read-out: percent inhibition of HGK/MAP4K4
Procedure: as §1

ERBB4/HER4 = ERBB4/HER4 (Homo sapiens, UniProt Q15303); details: single concentration of 1 μM; read-out: percent inhibition of ERBB4/HER4
Procedure: as §1

FGFR3 = FGFR3 (Homo sapiens, UniProt P22607); details: single concentration of 1 μM; read-out: percent inhibition of FGFR3
Procedure: as §1

EPHA4 = EPHA4 (Homo sapiens, UniProt P54764); details: single concentration of 1 μM; read-out: percent inhibition of EPHA4
Procedure: as §1

FLT1/VEGFR1 = FLT1/VEGFR1 (Homo sapiens, UniProt P17948); details: single concentration of 1 μM; read-out: percent inhibition of FLT1/VEGFR1
Procedure: as §1

PEAK1 = PEAK1 (Homo sapiens, UniProt Q9H792); details: single concentration of 1 μM; read-out: percent inhibition of PEAK1
Procedure: as §1

BRAF = BRAF (Homo sapiens, UniProt P15056); details: single concentration of 1 μM; read-out: percent inhibition of BRAF
Procedure: as §1

ACK1 = ACK1 (Homo sapiens, UniProt Q07912); details: single concentration of 1 μM; read-out: percent inhibition of ACK1
Procedure: as §1

LYN B = LYN B (Homo sapiens, UniProt P07948); details: single concentration of 1 μM; read-out: percent inhibition of LYN B
Procedure: as §1

ZAK/MLTK = ZAK/MLTK (Homo sapiens, UniProt Q9NYL2); details: single concentration of 1 μM; read-out: percent inhibition of ZAK/MLTK
Procedure: as §1

P38b/MAPK11 = P38b/MAPK11 (Homo sapiens, UniProt Q15759); details: single concentration of 1 μM; read-out: percent inhibition of P38b/MAPK11
Procedure: as §1

EPHA6 = EPHA6 (Homo sapiens, UniProt Q9UF33); details: single concentration of 1 μM; read-out: percent inhibition of EPHA6
Procedure: as §1

EPHA3 = EPHA3 (Homo sapiens, UniProt P29320); details: single concentration of 1 μM; read-out: percent inhibition of EPHA3
Procedure: as §1

FGFR1 = FGFR1 (Homo sapiens, UniProt P11362); details: single concentration of 1 μM; read-out: percent inhibition of FGFR1
Procedure: as §1

DDR1 = DDR1 (Homo sapiens, UniProt Q08345); details: single concentration of 1 μM; read-out: percent inhibition of DDR1
Procedure: as §1

LYN = LYN (Homo sapiens, UniProt P07948); details: single concentration of 1 μM; read-out: percent inhibition of LYN
Procedure: as §1

Measured: inhibition at 1 µM

Chain of ACK1 (Q07912 whole entry): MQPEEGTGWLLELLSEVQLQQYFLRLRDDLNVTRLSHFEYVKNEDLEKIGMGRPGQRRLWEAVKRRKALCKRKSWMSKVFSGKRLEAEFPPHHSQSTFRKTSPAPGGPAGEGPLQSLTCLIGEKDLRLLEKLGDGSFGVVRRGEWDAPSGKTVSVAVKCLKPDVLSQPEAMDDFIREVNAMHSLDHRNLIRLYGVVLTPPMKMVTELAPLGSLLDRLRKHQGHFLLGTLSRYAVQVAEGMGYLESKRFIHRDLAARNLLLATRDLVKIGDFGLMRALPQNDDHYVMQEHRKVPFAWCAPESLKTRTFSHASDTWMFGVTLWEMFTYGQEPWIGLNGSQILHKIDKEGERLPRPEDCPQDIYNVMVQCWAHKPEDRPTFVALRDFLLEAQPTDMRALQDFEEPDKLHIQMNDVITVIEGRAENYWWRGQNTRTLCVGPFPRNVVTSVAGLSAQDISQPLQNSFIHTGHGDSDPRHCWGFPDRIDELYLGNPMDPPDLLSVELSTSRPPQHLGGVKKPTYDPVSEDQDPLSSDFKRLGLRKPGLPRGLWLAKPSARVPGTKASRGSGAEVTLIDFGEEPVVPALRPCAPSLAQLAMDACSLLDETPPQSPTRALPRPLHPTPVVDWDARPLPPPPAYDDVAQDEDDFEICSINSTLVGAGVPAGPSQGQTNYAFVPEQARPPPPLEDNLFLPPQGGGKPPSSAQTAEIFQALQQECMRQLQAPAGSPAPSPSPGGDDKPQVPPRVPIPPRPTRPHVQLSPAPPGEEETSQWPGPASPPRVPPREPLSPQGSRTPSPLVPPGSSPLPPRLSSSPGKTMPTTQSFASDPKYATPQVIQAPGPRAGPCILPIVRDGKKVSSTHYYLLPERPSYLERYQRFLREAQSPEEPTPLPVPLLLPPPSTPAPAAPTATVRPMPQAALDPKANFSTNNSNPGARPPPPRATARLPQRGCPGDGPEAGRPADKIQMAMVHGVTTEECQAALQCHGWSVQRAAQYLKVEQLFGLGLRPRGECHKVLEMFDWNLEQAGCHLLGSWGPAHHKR
Chain of EPHB1 (P54762 18-984): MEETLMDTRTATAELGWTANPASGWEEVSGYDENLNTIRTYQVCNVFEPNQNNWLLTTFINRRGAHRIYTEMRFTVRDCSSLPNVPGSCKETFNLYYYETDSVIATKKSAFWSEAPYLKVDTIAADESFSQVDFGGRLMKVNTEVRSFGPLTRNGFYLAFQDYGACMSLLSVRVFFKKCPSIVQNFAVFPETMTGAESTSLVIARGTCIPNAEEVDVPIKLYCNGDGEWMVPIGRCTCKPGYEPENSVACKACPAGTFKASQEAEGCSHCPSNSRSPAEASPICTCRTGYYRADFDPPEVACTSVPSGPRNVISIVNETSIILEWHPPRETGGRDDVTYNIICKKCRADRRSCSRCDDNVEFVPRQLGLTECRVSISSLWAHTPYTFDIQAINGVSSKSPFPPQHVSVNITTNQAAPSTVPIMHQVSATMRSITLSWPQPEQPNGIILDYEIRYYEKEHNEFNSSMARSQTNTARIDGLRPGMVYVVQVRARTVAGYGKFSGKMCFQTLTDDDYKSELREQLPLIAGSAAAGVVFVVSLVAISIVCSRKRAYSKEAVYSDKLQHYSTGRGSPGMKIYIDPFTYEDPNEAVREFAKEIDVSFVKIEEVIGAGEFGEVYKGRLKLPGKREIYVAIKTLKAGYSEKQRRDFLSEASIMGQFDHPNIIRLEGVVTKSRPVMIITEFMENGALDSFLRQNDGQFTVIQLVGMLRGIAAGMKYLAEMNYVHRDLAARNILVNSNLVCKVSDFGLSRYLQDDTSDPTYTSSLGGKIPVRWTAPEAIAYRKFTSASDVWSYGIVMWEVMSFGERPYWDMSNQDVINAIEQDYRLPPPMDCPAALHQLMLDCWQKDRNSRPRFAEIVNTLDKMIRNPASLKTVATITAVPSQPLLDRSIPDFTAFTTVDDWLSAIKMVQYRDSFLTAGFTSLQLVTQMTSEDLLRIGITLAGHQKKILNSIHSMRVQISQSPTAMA
Chain of HGK/MAP4K4 (O95819 whole entry): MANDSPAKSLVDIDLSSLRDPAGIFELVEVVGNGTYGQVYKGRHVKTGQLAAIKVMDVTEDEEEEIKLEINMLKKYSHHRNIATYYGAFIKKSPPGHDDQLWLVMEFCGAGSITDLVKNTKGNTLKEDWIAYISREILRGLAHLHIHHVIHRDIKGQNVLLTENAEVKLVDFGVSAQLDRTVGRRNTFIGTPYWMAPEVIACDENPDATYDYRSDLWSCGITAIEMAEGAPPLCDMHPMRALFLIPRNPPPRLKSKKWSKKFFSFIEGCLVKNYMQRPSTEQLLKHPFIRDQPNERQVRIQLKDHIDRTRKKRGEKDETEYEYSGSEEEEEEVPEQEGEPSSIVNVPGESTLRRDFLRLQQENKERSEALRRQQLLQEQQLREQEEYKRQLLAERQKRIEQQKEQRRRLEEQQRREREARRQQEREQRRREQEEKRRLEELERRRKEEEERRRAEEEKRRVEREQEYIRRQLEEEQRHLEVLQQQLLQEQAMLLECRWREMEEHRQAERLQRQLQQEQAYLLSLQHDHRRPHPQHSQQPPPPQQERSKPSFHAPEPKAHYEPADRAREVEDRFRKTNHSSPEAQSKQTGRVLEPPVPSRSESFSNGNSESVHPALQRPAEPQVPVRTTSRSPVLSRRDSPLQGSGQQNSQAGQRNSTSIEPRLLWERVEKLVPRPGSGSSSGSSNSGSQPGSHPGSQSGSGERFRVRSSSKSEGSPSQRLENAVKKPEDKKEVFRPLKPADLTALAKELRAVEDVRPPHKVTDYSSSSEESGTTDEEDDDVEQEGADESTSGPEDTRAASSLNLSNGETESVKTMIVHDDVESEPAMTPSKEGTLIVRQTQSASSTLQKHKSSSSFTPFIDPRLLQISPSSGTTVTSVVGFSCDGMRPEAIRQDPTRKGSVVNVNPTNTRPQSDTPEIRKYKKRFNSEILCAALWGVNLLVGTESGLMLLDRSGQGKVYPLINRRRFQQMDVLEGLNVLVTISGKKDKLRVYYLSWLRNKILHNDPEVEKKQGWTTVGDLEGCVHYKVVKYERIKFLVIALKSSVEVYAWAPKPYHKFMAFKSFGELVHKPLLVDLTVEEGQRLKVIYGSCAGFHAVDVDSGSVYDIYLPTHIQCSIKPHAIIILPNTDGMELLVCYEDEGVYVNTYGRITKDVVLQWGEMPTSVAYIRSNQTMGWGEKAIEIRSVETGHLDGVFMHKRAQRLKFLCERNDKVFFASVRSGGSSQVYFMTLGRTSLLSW
Chain of TYK2 (P29597 whole entry): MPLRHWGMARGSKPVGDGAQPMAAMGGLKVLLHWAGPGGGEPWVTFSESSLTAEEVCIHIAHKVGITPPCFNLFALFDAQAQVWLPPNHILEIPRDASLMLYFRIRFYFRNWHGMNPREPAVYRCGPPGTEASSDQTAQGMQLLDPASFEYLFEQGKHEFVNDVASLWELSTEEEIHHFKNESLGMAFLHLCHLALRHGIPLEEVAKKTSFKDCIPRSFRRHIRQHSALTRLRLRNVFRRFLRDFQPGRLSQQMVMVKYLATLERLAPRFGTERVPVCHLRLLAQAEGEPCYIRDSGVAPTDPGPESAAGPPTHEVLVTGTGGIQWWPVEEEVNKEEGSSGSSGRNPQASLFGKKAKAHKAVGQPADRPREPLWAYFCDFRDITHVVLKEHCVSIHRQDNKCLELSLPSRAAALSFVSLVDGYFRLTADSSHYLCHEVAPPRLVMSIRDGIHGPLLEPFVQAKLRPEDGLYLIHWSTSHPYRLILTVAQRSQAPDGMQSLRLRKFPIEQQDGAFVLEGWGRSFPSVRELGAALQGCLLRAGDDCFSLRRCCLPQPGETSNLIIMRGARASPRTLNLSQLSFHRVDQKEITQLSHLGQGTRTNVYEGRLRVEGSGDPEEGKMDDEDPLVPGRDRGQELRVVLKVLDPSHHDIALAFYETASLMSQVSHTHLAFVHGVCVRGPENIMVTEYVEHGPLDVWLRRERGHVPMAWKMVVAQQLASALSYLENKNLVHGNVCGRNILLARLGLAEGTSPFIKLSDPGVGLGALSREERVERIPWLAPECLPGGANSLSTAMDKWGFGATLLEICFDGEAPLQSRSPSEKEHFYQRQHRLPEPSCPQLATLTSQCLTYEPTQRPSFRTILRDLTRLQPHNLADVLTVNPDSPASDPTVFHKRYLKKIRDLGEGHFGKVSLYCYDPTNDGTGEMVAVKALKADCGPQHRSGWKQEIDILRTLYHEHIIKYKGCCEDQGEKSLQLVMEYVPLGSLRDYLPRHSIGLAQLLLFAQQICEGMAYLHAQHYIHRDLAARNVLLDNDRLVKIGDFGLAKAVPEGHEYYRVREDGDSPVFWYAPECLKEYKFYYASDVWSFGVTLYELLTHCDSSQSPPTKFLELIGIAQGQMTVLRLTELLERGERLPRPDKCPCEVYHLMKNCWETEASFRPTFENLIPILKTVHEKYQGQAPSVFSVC
Chain of P38b/MAPK11 (Q15759 whole entry): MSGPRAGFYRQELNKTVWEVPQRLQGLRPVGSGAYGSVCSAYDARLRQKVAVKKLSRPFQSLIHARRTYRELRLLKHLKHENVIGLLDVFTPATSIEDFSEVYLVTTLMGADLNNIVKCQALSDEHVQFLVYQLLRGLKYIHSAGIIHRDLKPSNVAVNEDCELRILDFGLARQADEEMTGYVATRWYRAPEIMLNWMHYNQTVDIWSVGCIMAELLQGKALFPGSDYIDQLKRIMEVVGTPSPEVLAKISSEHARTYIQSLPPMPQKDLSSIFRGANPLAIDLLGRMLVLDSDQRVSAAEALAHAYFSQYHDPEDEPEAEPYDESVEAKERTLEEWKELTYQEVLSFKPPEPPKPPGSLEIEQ

Cc1ccc(Nc2ncc3cc(-c4cc(NC(=O)c5cccc(C(F)(F)F)c5)ccc4C)ncc3n2)cn1 [Compound No. 4, N-(4-methyl-3-(2-((6-methylpyridin-3-yl)amino)pyrido[3,4-d]pyrimidin-6-yl)phenyl)-3-(trifluoromethyl)benzamide]
≥ 70%: all assays above

Source: patent US20230120564A1, “PYRIDO[3,4-D]PYRIMIDINE DERIVATIVE AND THERAPEUTIC PHARMACEUTIC COMPOSITION COMPRISING SAME” (KOREA INSTITUTE OF SCIENCE AND TECHNOLOGY, priority 2020, published 2023)
